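96-well plates; 48 h exposure; 5 concentrations. Endpoints by linear interpolation between flanking doses. Not reached: highest tested concentration assigned. GI50 = concentration required for 50% inhibition of growth. At the TGI there is no net growth.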
What was measured:
Test in all cases: NCI anticancer screen, dose series, 48 h
DLD-1 colon = tested on: DLD-1 colon
KM20L2 colon = tested on: KM20L2 colon
DMS 114 small cell lung = tested on: DMS 114 small cell lung
HOP-18 NSCLC = tested on: HOP-18 NSCLC
RXF-631 renal = tested on: RXF-631 renal
M19-MEL melanoma = tested on: M19-MEL melanoma

Structure (SMILES) | TGI (DLD-1 colon) [µM] | TGI (KM20L2 colon) [µM] | TGI (DMS 114 small cell lung) [µM] | TGI (HOP-18 NSCLC) [µM] | TGI (RXF-631 renal) [µM] | TGI (M19-MEL melanoma) [µM] | GI50 (DLD-1 colon) [µM] | GI50 (KM20L2 colon) [µM] | GI50 (DMS 114 small cell lung) [µM] | GI50 (RXF-631 renal) [µM] | GI50 (M19-MEL melanoma) [µM]
COc1ccc(/C(C)=N/NC(N)=S)c(OC)c1 | > 100 | > 100 | > 100 | > 100 | > 100 | > 100 |  |  |  |  | 
N#CC1=C(c2ccccc2)C(O)(c2ccccc2)NC1=O (centres undefined) | > 100 | > 100 | > 100 | > 100 | > 100 | > 100 |  |  |  |  | 
COc1cc(-c2cc(CCC(=O)Nc3ccccc3[N+](=O)[O-])n(-c3ccc([N+](=O)[O-])cc3[N+](=O)[O-])n2)ccc1O | > 100 | > 100 | > 100 | > 10 | > 100 | > 100 | > 100 | > 100 | > 100 | > 100 | > 100
CN(C)/C=N/c1nc2ncn(CCOC(=O)c3ccccc3)c2c(=O)[nH]1 | > 100 | > 100 | > 100 | > 100 | > 100 | > 100 |  |  |  |  | 
